For one data set, the target named is CYPA (Homo sapiens, UniProt P62937). As to the kind of experiment: Reversible binary complex formation with CYPA. It is filed as binding.
For the next data set, the target named is GDP-loaded KRAS^G12C (Homo sapiens, UniProt P01116+P62937, G12C). As to the kind of experiment: Native PAGE tri-complex formation with GDP-loaded KRAS G12C. Type of data set: binding. The note with it: KRAS G12C 2 μM, compound 10 μM, CYPA 2 μM.
The target of data set [1] is T1, CYPA:RMC-4998:KRAS^G12C tri-complex (Homo sapiens, UniProt P01116+P62937, G12C). As to the kind of experiment: Tri-complex stability after compound washout, cellular experiments. Type of data set: cell-based.
Data set [2] deals with KRAS^G12C in MIA PaCa-2 cells (Homo sapiens, UniProt P01116+P62937, G12C). Description: Covalent modification of KRAS G12C in cells. Type of data set: cell-based.
In data set [3] the target is T1, CYPA:RMC-4998:KRAS^G12C tri-complex. As to the kind of experiment: Tri-complex stability after compound washout, biophysical assays. It is filed as binding.
The target of the next data set is KRAS^G12C (Homo sapiens, UniProt P01116+P62937, G12C). As to the kind of experiment: Kinetic target engagement assay. To be noted: active KRAS G12C in the presence of CYPA. It is filed as biochemical.
Another data set addresses KRAS^G13C (Homo sapiens, UniProt P01116, G13C). As to the kind of experiment: Activity on RAS variants.
A further data set relates to KRAS^G12C mutant cells. As to the kind of experiment: Cancer cell line panel viability, 3D CellTiter-Glo. It is filed as cell-based. To be noted: n = 17 G12C, n = 11 non-G12C cell lines.
Data set [4] deals with KRAS^G12C mutant CRC PDX models. Description: Patient-derived xenograft panel, CRC. It is filed as in vivo. To be noted: 200 mg/kg orally once daily, 28-day treatment; 6/15 models. A general note: Xenograft models place foreign cells or tissue in a host animal.
In data set [5] the test system is KRAS^G12C mutant NSCLC PDX models. As to the kind of experiment: Patient-derived xenograft panel, NSCLC. Type of data set: in vivo. To be noted: 200 mg/kg orally once daily, 28-day treatment; 19/25 models.

In the case of `CCn1c(-c2cccnc2[C@H](C)OC)c2c3cc(ccc31)-c1cccc(c1)C[C@H](NC(=O)[C@H](C(C)C)N1CC[C@]3(CCN(C(=O)C#CC(C)(C)N(C)C)C3)C1=O)C(=O)N1CCC[C@H](N1)C(=O)OCC(C)(C)C2` [RMC-4998], at CYPA, the “koff of binary complex with CYPA” value was 1.0 s⁻¹. Besides, the Kd at CYPA (read-out: Kd of binary complex with CYPA) came to 1090 nM. The “Complex formation with GDP-loaded KRAS G12C” value on GDP-loaded KRAS^G12C is “No complex was detected”. The “Tri-complex half-life after compound washout” value in [1] and in data set [3] was “greater than 8 hours” in each case. Also, the “Time to complete covalent modification of KRAS G12C” value in [2] is at most 5 min. The “Covalent engagement efficiency kinact/KI” value at KRAS^G12C is listed as 272,000 M^−1s^−1. In addition, at KRAS^G13C, the “Activity on KRAS G13C” value is recorded as “little, if any, activity”. The “Selectivity index (G12C versus non-G12C mutant models)” value in the data set on KRAS^G12C mutant cells is 1450 times.

On to `CCn1c(-c2cccnc2[C@H](C)OC)c2c3cc(ccc31)N1CCO[C@@H](C[C@H](NC(=O)[C@H](C(C)C)N(C)C(=O)C3(F)CCN(C(=O)C#CC(C)(C)N(C)C)CC3)C(=O)N3CCC[C@H](N3)C(=O)OCC(C)(C)C2)C1` [RMC-6291], for which the “Models with mean tumor regression” value in data set [4] stood at 40%; in [5], 76%. The Tolerability entry in the data set with NCI-H358 xenografts (mouse, in vivo, po) is “well tolerated”. The Tumor response entry with NCI-H358 xenografts (oral once daily, 28 days) is “near complete tumor regression”. Moreover, the “Duration of KRAS G12C engagement and inhibition of ERK phosphorylation in tumors” value in the data set with NCI-H358 xenografts (single dose) is ~ 24 hours. Moreover, the “Selectivity index (G12C versus non-G12C mutant models)” value in the data set with KRAS^G12C mutant cells was 13,500 times.

On to `C=C(F)C(=O)N1CCN(c2nc(OC[C@@H]3CCCN3C)nc3c2CCN(c2cccc4cccc(Cl)c24)C3)C[C@@H]1CC#N` [adagrasib], for which the “Effect of CYPA loss on cellular activity” value in the data set with CYPA-null H358 cells was “no effect”.

The term Kd denotes a measure of binding affinity in units of concentration.
